Literature values in US20180193334A1, “PHARMACEUTICAL COMPOSITION OF VORTIOXETINE OR SALT THEREOF, AND PREPARATION METHOD THEREFOR” (Changzhou Fangnan Pharmaceuticals, Ltd., priority 2015, published 2018).
≈ marks a conversion by molar mass, not a printed value.

| solubility in water | SMILES |
| --- | --- |
| 1200 µg/mL | Br.Cc1ccc(Sc2ccccc2N2CCNCC2)c(C)c1 [1-[2-(2,4-methylphenylthio)phenyl] piperazine hydrobromide] |
| 100 µg/mL (≈ 335 µM) | Cc1ccc(Sc2ccccc2N2CCNCC2)c(C)c1 [vortioxetine free base] |
